Assay results from US20080299140A1, “Immunogenic Composition and Peptide Sequences for Prevention and Treatment of an Hsv Condition” (priority 2002, published 2008).
Read-outs that look alike come from different tables or passages of the source.

Assays:
[1] = system: lymphocytes obtained from HSV-1 infected H-2^d mice; test: HSV-primed T-cell responses to gD peptides in HSV-1 infected mice; assay type: cell-based; conditions: for immunodominance of epitopes in HSV-primed T-cell responses: HSV-1 infected H-2^d mice; for T-cell responses recalled in HSV infected mice: HSV infected H-2^d mice (FIG. 6)
Method: Twelve days after the second immunization, spleen and inguinal lymph nodes (LN) were removed and placed into ice-cold serum free HL-1 medium supplemented with 15 mM HEPES, 5×10^−5 M β-mercaptoethanol, 2 mM glutamine, 50 U of penicillin and 50 μg of streptomycin (GIBCO-BRL, Grand Island, N.Y.) (complete medium, CM). The cells were cultured in 96-well plates at 5×10^5 cells/well in CM, with recall or control peptide at 30, 10, 3, 1, or 0.3 μg/ml concentration, as previously described in (BenMohamed et al., 2000 and 2002). The cell suspensions were incubated for 72 h at 37° C. in 5% CO2. One μCi (micro-curie) of (^3H)-thymidine (Dupont MEN, Boston, Mass.) was added to each well during the last 16 h of culture. The incorporated radioactivity was determined by harvesting cells onto glass fiber filters and counted on a Matrix 96 direct ionization-counter (Packard Instruments, Meriden, Conn.). Results were expressed as the mean cpm of cell-associated (^3H)-thymidine recovered from wells containing Ag minus the mean cpm of cell-associated (^3H)-thymidine recovered from wells without Ag (A cpm) (average of triplicate). The Stimulation Index (SI) was calculated as the mean cpm of cell-associated (^3H)-thymidine recovered from wells containing Ag divided by the mean cpm of cell-associated (^3H)-thymidine recovered from wells without Ag (average of triplicate). For all experiments the irrelevant control peptide gB141-165 and the T-cell mitogen Concanavalin A (ConA) (Sigma, St. Louis, Mo.) were used as negative and positive controls, respectively. Proliferation results were confirmed by repeating each experiment twice. A T-cell proliferative response was considered positive when A cpm>1000 and SI>2.
To define the fine specificity of broadly reactive T-cells associated with viral immunity and to explore immunodominance in the context of HSV infection, proliferation of lymphocytes obtained from twenty HSV-1 infected H-2^d mice were evaluated using the twelve gD peptides as Ag (FIG. 6). […] Despite a difference between individual mice, a unique array of T-cell responses was identified for each of the twenty infected mice analyzed.

[2] = target: T1, DP401=HLA-DP(α1*0101,α1*0401) (Homo sapiens, UniProt P04440+P20036); test: biochemical; assay type: binding
T1 sequence (P20036 32-260 limits assumed): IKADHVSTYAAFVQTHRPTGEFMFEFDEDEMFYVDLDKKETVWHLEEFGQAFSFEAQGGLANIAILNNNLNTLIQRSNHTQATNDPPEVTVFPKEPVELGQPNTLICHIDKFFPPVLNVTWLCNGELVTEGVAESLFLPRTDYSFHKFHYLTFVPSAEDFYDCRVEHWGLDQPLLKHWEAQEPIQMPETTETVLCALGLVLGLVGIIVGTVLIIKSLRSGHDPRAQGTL
T1 sequence (P04440 30-258): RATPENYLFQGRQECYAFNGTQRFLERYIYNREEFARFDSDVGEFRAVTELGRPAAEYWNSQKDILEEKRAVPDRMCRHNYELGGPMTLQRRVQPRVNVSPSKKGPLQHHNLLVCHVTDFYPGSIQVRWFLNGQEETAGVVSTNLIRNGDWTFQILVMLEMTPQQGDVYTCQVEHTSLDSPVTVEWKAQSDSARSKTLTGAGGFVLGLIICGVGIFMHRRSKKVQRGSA

[3] = target: T2, DR3=HLA-DR(α1*0101,α1*0301) (Homo sapiens, UniProt P01903+P01911, A100K/A102G/A103R/A169T/F55Y/I96L/K41T/L162R/M171V/P40S/Q125H/Q178H/Q39Y/R42S/S66N/T106N/T262R/W38E/Y61H); test: HLA-DR specific binding assay, DR3
T2 construct: endogenous in cells; host or cells: STEILIN (EBV homozygous B cell line)

[4] = system: HLA-DR and HLA-DP molecules; test: MHC class II binding assays, panel of twelve HLA class II molecules (number of alleles bound); conditions: number of the twelve class II MHC alleles bound; title: Threshold 600 nM/5 alleles
[5] = target: T3, DR7=HLA-DR(α1*0101,α1*0701) (Homo sapiens, UniProt P01903+P01911, A100R/A102G/A103Q/D57E/D86V/E43K/F76Y/K127E/L162R/M171V/P40G/Q125H/Q99D/R33Q/R42Y/R54Q/S133A/S66F/T210M/V115G/Y107V/Y59L/Y89S); test: HLA-DR specific binding assay, DR7
T3 construct: endogenous in cells; host or cells: EBV homozygous human B cell line

[6] = target: T4, DRB5=HLA-DR(α1*0101,α5*0101) (Homo sapiens, UniProt P01903+Q30154); test: biochemical; assay type: binding
T4 construct: endogenous in cells; host or cells: EBV homozygous human B cell line
T4 sequence (Q30154 30-266, other chains not shown): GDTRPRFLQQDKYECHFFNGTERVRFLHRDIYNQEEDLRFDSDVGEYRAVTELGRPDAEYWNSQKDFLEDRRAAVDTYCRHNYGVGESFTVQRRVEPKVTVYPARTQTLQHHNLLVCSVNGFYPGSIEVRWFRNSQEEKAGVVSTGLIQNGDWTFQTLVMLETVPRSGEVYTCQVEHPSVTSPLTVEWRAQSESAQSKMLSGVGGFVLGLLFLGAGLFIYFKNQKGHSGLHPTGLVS

[7] = target: T5, DR11=HLA-DR(α1*0101,α1*1101) (Homo sapiens, UniProt P01903+P01911, A100R/A169T/A87E/I96F/K41T/L162R/M171V/P40S/Q125H/Q178H/Q39Y/Q99D/R42S/S66Y/T262R/V115G/W38E); test: biochemical; assay type: binding
T5 construct: endogenous in cells; host or cells: SWEIG (EBV homozygous B cell line)

[8] = target: T6, DRB3=HLA-DR(α1*0101,α3*0101) (Homo sapiens, UniProt P01903+P79483); test: HLA-DR specific binding assay, DRB3 (DR52)
T6 construct: endogenous in cells; host or cells: STEILIN or 0206AD (both typed DRB3*0101)
T6 sequence (P79483 30-266, other chains not shown): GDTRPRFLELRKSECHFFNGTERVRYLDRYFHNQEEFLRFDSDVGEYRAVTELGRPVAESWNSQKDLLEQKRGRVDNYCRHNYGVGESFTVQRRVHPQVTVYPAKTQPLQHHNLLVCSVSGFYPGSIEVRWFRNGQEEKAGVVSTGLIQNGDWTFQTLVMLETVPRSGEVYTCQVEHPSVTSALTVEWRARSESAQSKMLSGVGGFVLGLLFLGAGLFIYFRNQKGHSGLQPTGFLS

[9] = target: T7, DR4=HLA-DR(α1*0101,α1*0401) (Homo sapiens, UniProt P01903+P01911, A100K/A169T/F76Y/I96L/K127E/L162R/M171V/N62H/P40V/Q125Y/R42H/S133A/S149N/S66Y/V115G/V209L/W38E); test: biochemical; assay type: binding
T7 construct: endogenous in cells; host or cells: BOLETH (EBV homozygous B cell line)

[10] = IC50, DR3, Class II MHC allele DR3
[11] = Table V, […], read-out: IC50 DRB5
[12] = Class II MHC allele DR11, read-out: IC50, DR11
[13] = Table V, […], read-out: IC50 DR11
[14] = IC50, DRD3, Class II MHC allele DRD3 (so in the source)
[15] = Class II MHC allele DR4, read-out: IC50, DR4
[16] = Table V, […], read-out: IC50 DR4

SMILES	immunodominance of epitopes in HSV-primed T-cell responses [1]	IC50 ([2]; Class II MHC allele DP401)	IC50 ([2]; Table V, […])	IC50 [3, 10]	IC50 ([3]; IC50 DR3, Table V, […])	Range [4]	IC50 [5]	IC50 [6, 11]	IC50 [7, 12]	IC50 [7, 13]	IC50 [8, 14]	IC50 ([8]; IC50 DRB3, Table V, […])	IC50 [9, 15]	IC50 [9, 16]	T-cell responses recalled in HSV infected mice [1]	IC50 ([7]; IC50, DR11)	IC50 ([7]; IC50 DR11)	IC50 [6]	IC50 ([9]; IC50, DR4)	IC50 ([9]; IC50 DR4)
CC[C@H](C)[C@H](NC(=O)[C@@H]1CCCN1C(=O)[C@H](CS)NC(=O)[C@H](C)NC(=O)CNC(=O)[C@H](CC(C)C)NC(=O)[C@H](CO)NC(=O)[C@H](CCCCN)NC(=O)[C@@H](N)CC(N)=O)C(=O)N[C@@H](CCCNC(=N)N)C(=O)N[C@H](C(=O)N[C@@H](CCC(N)=O)C(=O)N1CCC[C@H]1C(=O)N[C@@H](CCCNC(=N)N)C(=O)N[C@@H](Cc1c[nH]c2ccccc12)C(=O)N[C@@H](CC(N)=O)C(=O)N[C@@H](Cc1ccc(O)cc1)C(=O)N[C@@H](Cc1ccc(O)cc1)C(=O)N[C@@H](CC(=O)O)C(=O)N[C@@H](CO)C(=O)N[C@@H](Cc1ccccc1)C(=O)N[C@@H](CO)C(=O)N[C@@H](C)C(=O)N[C@H](C(=O)N[C@@H](CO)C(=O)N[C@@H](CCC(=O)O)C(=O)N[C@@H](CC(=O)O)C(=O)N[C@@H](CC(N)=O)C(=O)N[C@@H](CC(C)C)C(=O)NCC(=O)N[C@@H](Cc1ccccc1)C(=O)N[C@@H](CC(C)C)C(=O)O)C(C)C)[C@@H](C)O [HSV 33]	subdominant epitopes	83 nM	83 nM	66 nM	66 nM	12	19 nM	134 nM	289 nM	289 nM	226 nM	226 nM	6 nM	8 nM						
CC[C@H](C)[C@H](NC(=O)[C@H](CO)NC(=O)[C@@H]1CCCN1C(=O)[C@@H](NC(=O)[C@H](Cc1c[nH]cn1)NC(=O)[C@H](Cc1c[nH]c2ccccc12)NC(=O)[C@H](CC(N)=O)NC(=O)[C@@H]1CCCN1C(=O)[C@@H]1CCCN1C(=O)[C@@H](NC(=O)[C@H](CCC(N)=O)NC(=O)[C@@H]1CCCN1C(=O)[C@H](C)N)[C@@H](C)CC)[C@@H](C)CC)C(=O)N[C@@H](CCC(N)=O)C(=O)N[C@@H](CC(=O)O)C(=O)N[C@@H](C)C(=O)N[C@@H](C)C(=O)N[C@H](C(=O)N1CCC[C@H]1C(=O)N[C@@H](Cc1ccc(O)cc1)C(=O)N[C@@H](Cc1c[nH]cn1)C(=O)N1CCC[C@H]1C(=O)N1CCC[C@H]1C(=O)N[C@@H](C)C(=O)N[C@H](C(=O)N1CCC[C@H]1C(=O)N[C@@H](CC(N)=O)C(=O)N[C@@H](CC(N)=O)C(=O)N[C@@H](CCSC)C(=O)NCC(=O)N[C@@H](CC(C)C)C(=O)O)[C@@H](C)O)[C@@H](C)O [HSV 35]	immunodominant epitopes	> 100000 nM	> 100000 nM	19500 nM	19500 nM	1	2450 nM	4500 nM			5000 nM	5000 nM	600 nM	600 nM	either low or no response	25000 nM	25000 nM			
CC[C@H](C)[C@H](NC(=O)[C@H](CCC(N)=O)NC(=O)[C@@H]1CCCN1C(=O)[C@H](C)NC(=O)[C@H](CCC(=O)O)NC(=O)[C@H](CO)NC(=O)[C@@H]1CCCN1C(=O)[C@H](C)NC(=O)[C@H](CC(N)=O)NC(=O)[C@H](CC(C)C)NC(=O)[C@H](CC(C)C)NC(=O)[C@@H](NC(=O)[C@H](CO)NC(=O)[C@H](CCCNC(=N)N)NC(=O)[C@H](CS)NC(=O)[C@H](C)NC(=O)[C@H](CCCNC(=N)N)NC(=O)[C@H](CCC(=O)O)NC(=O)[C@H](CC(C)C)NC(=O)[C@@H](NC(=O)[C@H](C)NC(=O)[C@H](Cc1ccc(O)cc1)NC(=O)[C@H](Cc1ccc(O)cc1)NC(=O)[C@@H](NC(=O)[C@@H](NC(=O)[C@@H](NC(=O)[C@@H]1CCCN1C(=O)[C@H](CC(C)C)NC(=O)[C@H](CO)NC(=O)[C@@H]1CCCN1C(=O)[C@@H]1CCCN1C(=O)[C@@H](N)CCC(N)=O)[C@@H](C)CC)[C@@H](C)O)C(C)C)C(C)C)C(C)C)C(=O)N[C@H](C(=O)N[C@@H](CCCNC(=N)N)C(=O)O)C(C)C [HSV 36]	immunodominant epitopes	615 nM	615 nM	1250 nM	1250 nM	9	173 nM				5000 nM	5000 nM	93 nM	93 nM		120 nM	120 nM	66 nM		
CC[C@H](C)[C@H](NC(=O)[C@H](CO)NC(=O)[C@H](CC(=O)O)NC(=O)[C@@H](NC(=O)[C@@H](NC(=O)[C@@H](NC(=O)CNC(=O)[C@H](CCC(N)=O)NC(=O)[C@H](CCC(N)=O)NC(=O)[C@H](Cc1ccc(O)cc1)NC(=O)[C@H](C)NC(=O)[C@H](CCC(N)=O)NC(=O)[C@@H]1CCCN1C(=O)[C@H](CO)NC(=O)[C@H](CC(C)C)NC(=O)[C@H](CS)NC(=O)[C@H](C)NC(=O)[C@@H](N)CO)C(C)C)[C@@H](C)O)C(C)C)C(=O)NCC(=O)N[C@@H](CCSC)C(=O)N[C@@H](CC(C)C)C(=O)N1CCC[C@H]1C(=O)N[C@@H](CCCNC(=N)N)C(=O)N[C@@H](Cc1ccccc1)C(=O)N[C@H](C(=O)N1CCC[C@H]1C(=O)N[C@@H](CCC(=O)O)C(=O)N[C@@H](CC(N)=O)C(=O)N[C@@H](CCC(N)=O)C(=O)N[C@@H](CCCNC(=N)N)C(=O)N[C@H](C(=O)N[C@H](C(=O)N[C@@H](C)C(=O)N[C@H](C(=O)N[C@@H](Cc1ccc(O)cc1)C(=O)O)C(C)C)C(C)C)[C@@H](C)O)[C@@H](C)CC [HSV 37]				307 nM	307 nM	9	200 nM	68 nM	44 nM	44 nM	41 nM	41 nM			either low or no response				40 nM	40 nM
